Reference: ChEMBL document CHEMBL5724914, “Linking interpersonal differences in gut microbiota composition and drug biotransformation activity” (2024)

Key:
[1] = (§1) The drug is tested on Z-029 corresponding to rat gut metagenome with ENA study accession number: PRJEB37062 and ENA sample accession number: ERS12561828 for biotransformation under anaerobic condition. The drug concentrations were measured over 9 timepoints collected between 0 and 24 hours of incubation by liquid-chromatography-coupled mass spectrometry (LC–MS); details: 2 µM
[2] = as §1, with “Z-026” for “Z-029”, “to” for “to rat gut”, “ERS12561825” for “ERS12561828”; details: 2 µM
[3] = as §1, with “Z-023” for “Z-029”, “to” for “to rat gut”, “ERS12561822” for “ERS12561828”; details: 2 µM
[4] = as §1, with “on Z-022” for “on Z-029”, “to mouse” for “to rat”, “number: ERS12561821” for “number: ERS12561828”; details: 2 µM
[5] = as §1, with “on Z-020” for “on Z-029”, “to rabbit” for “to rat”, “number: ERS12561819” for “number: ERS12561828”; details: 2 µM
[6] = as §1, with “on Z-017” for “on Z-029”, “to mouse” for “to rat”, “number: ERS12561816” for “number: ERS12561828”; details: 2 µM
[7] = as §1, with “Z-014” for “Z-029”, “ERS12561814” for “ERS12561828”; details: 2 µM
[8] = as §1, with “Z-012” for “Z-029”, “to” for “to rat gut”, “ERS12561812” for “ERS12561828”; details: 2 µM
[9] = as §1, with “on WLS-170” for “on Z-029”, “to human” for “to rat”, “number: ERS12561762” for “number: ERS12561828”; details: 2 µM
[10] = as §1, with “on WLS-086” for “on Z-029”, “to human” for “to rat”, “number: ERS12561752” for “number: ERS12561828”; details: 2 µM
[11] = as §1, with “on WLS-082” for “on Z-029”, “to human” for “to rat”, “number: ERS12561751” for “number: ERS12561828”; details: 2 µM
[12] = as §1, with “on WLS-010” for “on Z-029”, “to human” for “to rat”, “number: ERS12561743” for “number: ERS12561828”; details: 2 µM
[13] = human gut metagenome, 24 h, 2 µM
[14] = human gut metagenome, 24 h, 2 µM; remark: listed apart in the source
[15] = human gut metagenome, 24 h, 2 µM; remark: listed apart in the source
[16] = human gut metagenome, 24 h, 2 µM; remark: listed apart in the source
[17] = human gut metagenome, 24 h, 2 µM; remark: listed apart in the source
[18] = human gut metagenome, 24 h, 2 µM; remark: listed apart in the source
[19] = human gut metagenome, 24 h, 2 µM; remark: listed apart in the source
[20] = human gut metagenome, 24 h, 2 µM; remark: listed apart in the source
Also: call rule not given here.

Row | Bacterial Biotransformation [1] | Bacterial Biotransformation [2] | Bacterial Biotransformation [3] | Bacterial Biotransformation [4] | Bacterial Biotransformation [5] | Bacterial Biotransformation [6] | Bacterial Biotransformation [7] | Bacterial Biotransformation [8] | Bacterial Biotransformation [9] | Bacterial Biotransformation [10] | Bacterial Biotransformation [11] | Bacterial Biotransformation [12] | Bacterial Biotransformation [13] | Bacterial Biotransformation [14] | Bacterial Biotransformation [15] | Bacterial Biotransformation [16] | Bacterial Biotransformation [17] | Bacterial Biotransformation [18] | Bacterial Biotransformation [19] | Bacterial Biotransformation [20] | SMILES
1 | Compound NOT metabolized | Compound NOT metabolized | Compound NOT metabolized | Compound NOT metabolized | Compound NOT metabolized | Compound NOT metabolized | Compound NOT metabolized | Compound NOT metabolized | Compound NOT metabolized | Compound metabolized | Compound NOT metabolized | Compound NOT metabolized | Compound NOT metabolized | Compound NOT metabolized | Compound NOT metabolized | Compound NOT metabolized | Compound metabolized | Compound metabolized | Compound NOT metabolized | Compound NOT metabolized | c1ccc2[nH]c(-c3cscn3)nc2c1 [THIABENDAZOLE]
2 | Compound NOT metabolized | Compound NOT metabolized | Compound NOT metabolized | Compound NOT metabolized | Compound NOT metabolized | Compound NOT metabolized | Compound NOT metabolized | Compound NOT metabolized | Compound NOT metabolized | Compound NOT metabolized | Compound NOT metabolized | Compound NOT metabolized | Compound NOT metabolized | Compound metabolized | Compound NOT metabolized | Compound NOT metabolized | Compound metabolized | Compound metabolized | Compound NOT metabolized | Compound NOT metabolized | CCN(CC)CCNC(=O)c1cc(S(C)(=O)=O)ccc1OC [TIAPRIDE]
3 | Compound NOT metabolized | Compound NOT metabolized | Compound NOT metabolized | Compound NOT metabolized | Compound NOT metabolized | Compound NOT metabolized | Compound NOT metabolized | Compound NOT metabolized | Compound NOT metabolized | Compound NOT metabolized | Compound NOT metabolized | Compound NOT metabolized | Compound NOT metabolized | Compound NOT metabolized | Compound NOT metabolized | Compound NOT metabolized | Compound NOT metabolized | Compound NOT metabolized | Compound NOT metabolized | Compound NOT metabolized | CC(C)(C)NC[C@H](O)COc1nsnc1N1CCOCC1.O=C(O)/C=C\C(=O)O [TIMOLOL MALEATE]
4 | Compound NOT metabolized | Compound NOT metabolized | Compound NOT metabolized | Compound NOT metabolized | Compound NOT metabolized | Compound NOT metabolized | Compound NOT metabolized | Compound NOT metabolized | Compound NOT metabolized | Compound NOT metabolized | Compound NOT metabolized | Compound NOT metabolized | Compound NOT metabolized | Compound NOT metabolized | Compound NOT metabolized | Compound NOT metabolized | Compound NOT metabolized | Compound NOT metabolized | Compound NOT metabolized | Compound NOT metabolized | CC[C@@]1(O)C(=O)OCc2c1cc1n(c2=O)Cc2cc3c(CN(C)C)c(O)ccc3nc2-1 [TOPOTECAN]
5 | Compound NOT metabolized | Compound NOT metabolized | Compound NOT metabolized | Compound NOT metabolized | Compound NOT metabolized | Compound NOT metabolized | Compound NOT metabolized | Compound NOT metabolized | Compound NOT metabolized | Compound NOT metabolized | Compound NOT metabolized | Compound NOT metabolized | Compound NOT metabolized | Compound NOT metabolized | Compound NOT metabolized | Compound NOT metabolized | Compound NOT metabolized | Compound NOT metabolized | Compound NOT metabolized | Compound NOT metabolized | COc1cc(C(=O)NCc2ccc(OCCN(C)C)cc2)cc(OC)c1OC [TRIMETHOBENZAMIDE]
6 | Compound NOT metabolized | Compound NOT metabolized | Compound metabolized | Compound metabolized | Compound metabolized | Compound NOT metabolized | Compound NOT metabolized | Compound NOT metabolized | Compound metabolized | Compound metabolized | Compound metabolized | Compound NOT metabolized | Compound metabolized | Compound metabolized | Compound metabolized | Compound NOT metabolized | Compound metabolized | Compound metabolized | Compound metabolized | Compound metabolized | CCOC(=O)C1=C[C@]2(CC)CCCN3CCc4c(n1c1ccccc41)[C@@H]32 [VINPOCETINE]

Row | SMILES | Bacterial Biotransformation [1] | Bacterial Biotransformation [2] | Bacterial Biotransformation [3] | Bacterial Biotransformation [4] | Bacterial Biotransformation [5] | Bacterial Biotransformation [6] | Bacterial Biotransformation [7] | Bacterial Biotransformation [8] | Bacterial Biotransformation [9] | Bacterial Biotransformation [10] | Bacterial Biotransformation [11] | Bacterial Biotransformation [12] | Bacterial Biotransformation [13] | Bacterial Biotransformation [14] | Bacterial Biotransformation [15] | Bacterial Biotransformation [16] | Bacterial Biotransformation [17] | Bacterial Biotransformation [18] | Bacterial Biotransformation [19] | Bacterial Biotransformation [20]
7 | COc1ccc(C(CN(C)C)C2(O)CCCCC2)cc1 (stereo not given) [VENLAFAXINE] | Compound NOT metabolized | Compound NOT metabolized | Compound NOT metabolized | Compound NOT metabolized | Compound NOT metabolized | Compound NOT metabolized | Compound NOT metabolized | Compound NOT metabolized | Compound NOT metabolized | Compound NOT metabolized | Compound NOT metabolized | Compound NOT metabolized | Compound NOT metabolized | Compound NOT metabolized | Compound NOT metabolized | Compound NOT metabolized | Compound metabolized | Compound metabolized | Compound metabolized | Compound NOT metabolized
8 | C[C@@H](c1ncncc1F)[C@](O)(Cn1cncn1)c1ccc(F)cc1F [VORICONAZOLE] | Compound metabolized | Compound NOT metabolized | Compound metabolized | Compound metabolized | Compound metabolized | Compound NOT metabolized | Compound NOT metabolized | Compound metabolized | Compound metabolized | Compound metabolized | Compound metabolized | Compound metabolized | Compound metabolized | Compound metabolized | Compound metabolized | Compound NOT metabolized | Compound metabolized | Compound metabolized | Compound metabolized | Compound metabolized
